Assay results: US6358885B1, “Substituted phenylheterocyclic herbicides” (Mississippi State University, priority 1992, dated 2002)

Legend:
Assay in all cases: Test F preemergence/postemergence greenhouse plant response rating 0 to 100
sugar beet = format: in vivo, Beta vulgaris cv. ‘USl’; conditions: POSTEMERGENCE, 0 to 100 scale
Excerpt: (§1) Compounds evaluated in this test were formulated in a non-phytoxic solvent and applied to the soil surface before plant seedlings emerged (preemergence application) and to plants that were in the one-to-four leaf stage (postemergence application). A sandy loam soil was used for the preemergence test while a mixture of sandy loam soil and greenhouse potting mix in a 60:40 ratio was used for the postemergence test. Test compounds were applied within approximately one day after planting seeds for the preemergence test. Plantings of these crops and weed species were adjusted to produce plants of appropriate size for the postemergence test. All plant species were grown using normal greenhouse practices. Crop and weed species include winter barley (Hordeum vulgare cv. ‘Igri’), blackgrass (Alopecurus myosuroides), chickweed (Stellaria media), downy brome (Bromus tectorum), field violet (Viola arvensis), galium (Galium aparine), green foxtail (Setaria viridis), kochia (Kochia scoparia), lambsquarters (Chenopodium album), speedwell (Veronica persica), rape (Brassica napus), ryegrass (Lolium multiflorum), sugar beet (Beta vulgaris cv. ‘USl’), sunflower (Helianthus annuus cv. ‘Russian Giant’), spring wheat (Triticum aestivum cv. ‘ERA’), winter wheat (Triticum aestivum cv. ‘Talent’), wild buckwheat (Polygonum convolvulus), wild mustard (Sinapis arvensis), wild oat (Avena fatua), and wild radish (Raphanus raphanistrum). Blackgrass, galium and wild oat were treated at two growth stages. […] Treated plants and untreated controls were maintained in a greenhouse for approximately 21 to 28 days, after which all treated plants were compared to untreated controls and visually evaluated. […] A dash response (-) means no test result.

rape = format: in vivo, Brassica napus; conditions: POSTEMERGENCE, 0 to 100 scale
Excerpt: as §1

blackgrass = format: in vivo, Alopecurus myosuroides; conditions: POSTEMERGENCE, 0 to 100 scale; for Blackgrass (1) plant response rating: stage (1) two to three leaves; for Blackgrass (2) plant response rating: stage (2) approximately four leaves or initial tillering
Excerpt: as §1

spring wheat = format: in vivo, Triticum aestivum cv. ‘ERA’; conditions: POSTEMERGENCE, 0 to 100 scale
Excerpt: as §1

galium = format: in vivo, Galium aparine; conditions: POSTEMERGENCE, 0 to 100 scale; for Galium (1) plant response rating: stage (1) two to three leaves; for Galium (2) plant response rating: stage (2) approximately four leaves or initial tillering
Excerpt: as §1

wild oat = format: in vivo, Avena fatua; conditions: POSTEMERGENCE, 0 to 100 scale; for Wild oat (1) plant response rating: stage (1) two to three leaves; for Wild oat (2) plant response rating: stage (2) approximately four leaves or initial tillering
Excerpt: as §1

speedwell = format: in vivo, Veronica persica; conditions: POSTEMERGENCE, 0 to 100 scale
Excerpt: as §1

downy brome = format: in vivo, Bromus tectorum; conditions: POSTEMERGENCE, 0 to 100 scale
Excerpt: as §1

lambsquarters = format: in vivo, Chenopodium album; conditions: POSTEMERGENCE, 0 to 100 scale
Excerpt: as §1

wild buckwheat = format: in vivo, Polygonum convolvulus; conditions: POSTEMERGENCE, 0 to 100 scale
Excerpt: as §1

ryegrass = format: in vivo, Lolium multiflorum; conditions: POSTEMERGENCE, 0 to 100 scale
Excerpt: as §1

winter wheat = format: in vivo, Triticum aestivum cv. ‘Talent’; conditions: POSTEMERGENCE, 0 to 100 scale
Excerpt: as §1

sunflower = format: in vivo, Helianthus annuus cv. ‘Russian Giant’; conditions: POSTEMERGENCE, 0 to 100 scale
Excerpt: as §1

With `C#CC(C)Oc1cc(-c2nn3c(c2Cl)CCCC3)c(F)cc1Cl` (stereo not shown) [Compound 36] the “Sugar beet plant response rating” value (sugar beet; Rate 4 g/ha) was 100, the “Sugar beet plant response rating” value (sugar beet; Rate 8 g/ha) was 100 and the “Sugar beet plant response rating” value (sugar beet; Rate 16 g/ha) was 100. The “Sugar beet plant response rating” value (sugar beet; Rate 32 g/ha) was 100, the “Rape plant response rating” value (rape; Rate 8 g/ha) was 40 and the “Rape plant response rating” value (rape; Rate 16 g/ha) was 100. The “Rape plant response rating” value (rape; Rate 32 g/ha) was 100, the “Blackgrass (1) plant response rating” value (blackgrass; Rate 4 g/ha) was 0 and the “Blackgrass (2) plant response rating” value (blackgrass; Rate 4 g/ha) was 0. For the same compound, the “Blackgrass (1) plant response rating” value (blackgrass; Rate 8 g/ha) was 0, the “Blackgrass (2) plant response rating” value (blackgrass; Rate 8 g/ha) was 0 and the “Blackgrass (1) plant response rating” value (blackgrass; Rate 16 g/ha) was 0. The “Blackgrass (2) plant response rating” value (blackgrass; Rate 16 g/ha) was 10, the “Blackgrass (1) plant response rating” value (blackgrass; Rate 32 g/ha) was 5 and the “Blackgrass (2) plant response rating” value (blackgrass; Rate 32 g/ha) was 20. For the same compound, the “Wheat (Spring) plant response rating” value (spring wheat; Rate 4 g/ha) was 15, the “Wheat (Spring) plant response rating” value (spring wheat; Rate 8 g/ha) was 15 and the “Wheat (Spring) plant response rating” value (spring wheat; Rate 16 g/ha) was 15. The “Wheat (Spring) plant response rating” value (spring wheat; Rate 32 g/ha) was 20, the “Galium (1) plant response rating” value (galium; Rate 4 g/ha) was 20 and the “Galium (2) plant response rating” value (galium; Rate 4 g/ha) was 40. The “Galium (1) plant response rating” value (galium; Rate 8 g/ha) was 50, the “Galium (2) plant response rating” value (galium; Rate 8 g/ha) was 60 and the “Galium (1) plant response rating” value (galium; Rate 16 g/ha) was 50. The “Galium (2) plant response rating” value (galium; Rate 16 g/ha) was 60, the “Galium (1) plant response rating” value (galium; Rate 32 g/ha) was 60 and the “Galium (2) plant response rating” value (galium; Rate 32 g/ha) was 70. For the same compound, the “Wild oat (1) plant response rating” value (wild oat; Rate 4 g/ha) was 10, the “Wild oat (2) plant response rating” value (wild oat; Rate 4 g/ha) was 10 and the “Wild oat (1) plant response rating” value (wild oat; Rate 8 g/ha) was 20. For the same compound, the “Wild oat (2) plant response rating” value (wild oat; Rate 8 g/ha) was 10, the “Wild oat (1) plant response rating” value (wild oat; Rate 16 g/ha) was 20 and the “Wild oat (2) plant response rating” value (wild oat; Rate 16 g/ha) was 20. The “Wild oat (1) plant response rating” value (wild oat; Rate 32 g/ha) was 20, the “Wild oat (2) plant response rating” value (wild oat; Rate 32 g/ha) was 20 and the “Persn Speedwell plant response rating” value (speedwell; Rate 4 g/ha) was 100. The “Persn Speedwell plant response rating” value (speedwell; Rate 8 g/ha) was 100, the “Persn Speedwell plant response rating” value (speedwell; Rate 16 g/ha) was 100 and the “Persn Speedwell plant response rating” value (speedwell; Rate 32 g/ha) was 100. For the same compound, the “Downy brome plant response rating” value (downy brome; Rate 4 g/ha) was 0, the “Downy brome plant response rating” value (downy brome; Rate 8 g/ha) was 0 and the “Downy brome plant response rating” value (downy brome; Rate 16 g/ha) was 0. The “Downy brome plant response rating” value (downy brome; Rate 32 g/ha) was 5, the “Lambsquarters plant response rating” value (lambsquarters; Rate 4 g/ha) was 50 and the “Lambsquarters plant response rating” value (lambsquarters; Rate 8 g/ha) was 50. For the same compound, the “Lambsquarters plant response rating” value (lambsquarters; Rate 16 g/ha) was 60, the “Lambsquarters plant response rating” value (lambsquarters; Rate 32 g/ha) was 60 and the “Wild buckwheat plant response rating” value (wild buckwheat; Rate 16 g/ha) was 100. The “Wild buckwheat plant response rating” value (wild buckwheat; Rate 32 g/ha) was 100, the “Ryegrass plant response rating” value (ryegrass; Rate 4 g/ha) was 0 and the “Ryegrass plant response rating” value (ryegrass; Rate 8 g/ha) was 10. The “Ryegrass plant response rating” value (ryegrass; Rate 16 g/ha) was 20, the “Ryegrass plant response rating” value (ryegrass; Rate 32 g/ha) was 35 and the “Wheat (Winter) plant response rating” value (winter wheat; Rate 4 g/ha) was 20. The “Wheat (Winter) plant response rating” value (winter wheat; Rate 8 g/ha) was 20, the “Wheat (Winter) plant response rating” value (winter wheat; Rate 16 g/ha) was 20 and the “Wheat (Winter) plant response rating” value (winter wheat; Rate 32 g/ha) was 50. For the same compound, the “Sunflower plant response rating” value (sunflower; Rate 4 g/ha) was 0, the “Sunflower plant response rating” value (sunflower; Rate 8 g/ha) was 40 and the “Sunflower plant response rating” value (sunflower; Rate 16 g/ha) was 50. For the same compound, the “Sunflower plant response rating” value (sunflower; Rate 32 g/ha) was 60.
